Measured values from ChEMBL document CHEMBL1201862, “PubChem BioAssay data set” (2004).
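Briefly, cells in 96-well plates were exposed to five compound concentrations for 48 h, and endpoints were estimated by linear interpolation. The concentration for 50% growth inhibition is given as GI50.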 Calls of active or inactive are those of the source. Rule as the data show it: active = GI50 up to about 1.1 µM and inactive = higher.

Key:
Assay in all cases: growth of human tumour cells (NCI), 48 h
[1] = test system: A498
[2] = test system: ACHN
[3] = test system: DU-145
[4] = test system: HOP-92
[5] = test system: HT-29
[6] = test system: IGROV-1
[7] = test system: K562
[8] = test system: KM12
[9] = test system: LOX IMVI
[10] = test system: MDA-MB-231
[11] = test system: MDA-N
[12] = test system: MOLT-4
[13] = test system: NCI-H23
[14] = test system: NCI-H522
[15] = test system: RXF 393
[16] = test system: SK-MEL-28
[17] = test system: TK-10
[18] = test system: UO-31
[19] = test system: RPMI-8226
[20] = test system: SR

Measured: GI50

CCN(CC)c1nnc(CCCCCCCCc2nnc(N(CC)CC)o2)o1
inactive: [1] > 100 µM | [2] > 100 µM | [3] > 100 µM | [4] > 100 µM | [5] > 100 µM | [6] > 100 µM | [7] > 100 µM | [8] > 100 µM | [9] > 100 µM | [10] > 100 µM | [11] > 100 µM | [12] > 100 µM | [13] > 100 µM | [14] > 100 µM | [15] > 100 µM | [16] > 100 µM | [17] > 100 µM | [18] > 100 µM

CC1=C/C(=N/N2C(=O)/C(=C/c3ccc(Cl)cc3)N=C2c2ccccc2)CC(C)(C)C1
inactive: [1] > 100 µM | [2] > 100 µM | [4] 94.8 µM | [5] 70.5 µM | [6] 52.1 µM | [7] 66.4 µM | [8] 51.1 µM | [9] 42.1 µM | [10] > 100 µM | [11] 67.6 µM | [12] 25 µM | [13] > 100 µM | [14] 30 µM | [19] 20.9 µM | [15] 91.6 µM | [16] > 100 µM | [20] 31 µM | [17] 89.5 µM | [18] > 100 µM

CS(=O)(=O)OCCN(CCOS(C)(=O)=O)c1ccc(/C=N/N=c2/nc[nH]c3nc[nH]c23)cc1
inactive: [1] 25.7 µM | [2] 17.4 µM | [4] 16.9 µM | [5] 17.8 µM | [6] 19.1 µM | [7] 24.9 µM | [8] 15.6 µM | [9] 15.1 µM | [12] 4.84 µM | [13] 14.8 µM | [14] 12.3 µM | [19] 15.3 µM | [15] 15.7 µM | [16] 19.3 µM | [20] 4.57 µM | [17] 26.9 µM | [18] 28.3 µM

NC1=NS(=O)(=O)Nc2nc(-c3cccs3)[nH]c21
inactive: [1] > 100 µM | [2] > 100 µM | [4] > 100 µM | [5] > 100 µM | [6] > 100 µM | [7] > 100 µM | [8] > 100 µM | [9] > 100 µM | [12] > 100 µM | [13] > 100 µM | [14] > 100 µM | [19] > 100 µM | [15] > 100 µM | [16] > 100 µM | [20] > 100 µM | [17] > 100 µM | [18] > 100 µM

CN1N=CSC12C(=O)N(c1ccc(Cl)cc1)C(=O)N2c1ccc(Cl)cc1 (stereo unspecified)
inactive: [1] 3.1 µM | [2] 2.77 µM | [4] 3.15 µM | [5] 3.4 µM | [6] 5.05 µM | [7] 2.99 µM | [8] 3.58 µM | [9] 3.21 µM | [12] 2.67 µM | [13] 2.12 µM | [14] 2.05 µM | [19] 2.6 µM | [15] 5.33 µM | [16] 4.4 µM | [20] 2.75 µM | [17] 3.84 µM | [18] 2.85 µM

NC1=Nc2ccccc2Sc2ccccc21
inactive: [1] 84.9 µM | [2] > 100 µM | [4] 32.7 µM | [5] > 100 µM | [6] > 100 µM | [7] 82.6 µM | [8] > 100 µM | [9] > 100 µM | [12] > 100 µM | [13] > 100 µM | [14] 60.3 µM | [19] 77.4 µM | [15] 95.7 µM | [16] > 100 µM | [20] > 100 µM | [17] > 100 µM | [18] 34.4 µM

CC(=O)c1cccc(NC(=O)C(=O)c2c(O)oc3ccccc3c2=O)c1
inactive: [1] > 100 µM | [2] > 100 µM | [4] > 100 µM | [5] > 100 µM | [6] > 100 µM | [7] > 100 µM | [8] > 100 µM | [9] > 100 µM | [10] > 100 µM | [11] > 100 µM | [12] > 100 µM | [13] > 100 µM | [14] > 100 µM | [19] > 100 µM | [15] > 100 µM | [16] > 100 µM | [20] > 100 µM | [17] > 100 µM | [18] > 100 µM

CCOCN/C(N)=N\C#N
inactive: [1] > 100 µM | [2] > 100 µM | [4] > 100 µM | [5] > 100 µM | [6] > 100 µM | [7] 66.1 µM | [8] > 100 µM | [9] 12.1 µM | [12] > 100 µM | [13] > 100 µM | [14] > 100 µM | [19] > 100 µM | [15] 61.8 µM | [16] > 100 µM | [20] 36.6 µM | [17] > 100 µM | [18] > 100 µM
